Measurements: patent US20250289813A1, “CDK INHIBITORS, PHARMACEUTICAL COMPOSITIONS, AND THERAPEUTIC APPLICATIONS” (ONQUALITY PHARMACEUTICALS CHINA LTD., priority 2022, published 2025)

Assays:
CDK4/cyclin D1 = CDK4/cyclin D1 (Homo sapiens (Human), UniProt P11802); assay: CDK4 Caliper Mobility Shift assay; assay type: biochemical
Description: (§1) A Caliper Mobility Shift assay was used to determine the inhibitory activities of a compound against CDK4/cyclin D1 and CDK6/cyclin D1 in their respective kinase buffers (CDK4: 20 mM HEPES, pH 7.5, and 0.01% Triton X-100; CDK6: 50 mM HEPES, pH 7.5, and 0.0015% BRIJ-35). The CDK4/cyclin D1 and CDK6/cyclin D1 were obtained from PROQINASE and CARNA, respectively. A FAM-labeled peptide was obtained from GL.
(§2) The compound at predetermined concentrations was pre-incubated with CDK4/cyclin D1 or CDK6/cyclin D1 in a 384-well microplate at room temperature for 10 min. The FAM-labeled peptide and ATP were subsequently added to initiate the kinase reactions. The final enzyme concentrations were 15 nM for CDK4 and 7.5 nM for CDK6. The final ATP concentrations were […] for CDK4 and […] for CDK6. The microplate was allowed to incubate at 28° C. The kinase reactions were stopped by adding a stop buffer (100 mM HEPES, pH 7.5, 0.012% BRIJ-35, 0.2% Coating Reagent 3 (Caliper Life Sciences), and […]). Conversion data were recorded and utilized to calculate the percent inhibition values for each compound and an IC50 value was then determined. The results are summarized in Table 1, where the symbol “***” represents a value no greater than 200 nM, the symbol “**” represents a value greater than 200 nM but no greater than 500 nM, and the symbol “*” represents a value greater than 500 nM.

[1] = system: COLO205 human colon cancer cells; assay: CASPASE-GLO 3/7 apoptosis assay (protection against chemotherapy drug induced cytotoxicity); assay type: cell-based
Description: The CASPASE-GLO 3/7 apoptosis assay was used to evaluate the protective effect of a compound on the cytotoxicity induced by a chemotherapy drug. The apoptosis assay was carried out using COLO205 human colon cancer cells. The cells were grown at 37° C. in a 5% CO2 humidified incubator in PRIM1640 supplemented with 10% FBS and 0.01 mg/mL bovine insulin. The cells were seeded at 4,000 cells/well in a 96-well plate. After incubated overnight, the cells were pretreated with a compound at predetermined concentrations or a vehicle for 16 h, followed by addition of a chemotherapy drug. After incubated for another 48 h, the CASPASE-GLO 3/7 reagent (100 μL/well) was added. The cells were mixed on an orbital shaker for 10 min and incubated at room temperature for 2 h. The 96-well plate was read with an ENVISION reader.

CDK6/cyclin D1 = CDK6/cyclin D1 (Homo sapiens (Human), UniProt Q00534); assay: CDK6 Caliper Mobility Shift assay; assay type: biochemical
Description: as §1, §2

BALB/c mice = assay: 5-FU-induced diarrhea mouse model; assay type: in vivo; settings: 8 h before and 4 h after 5-FU (175 mg/kg), day 7
Description: A compound was evaluated in a 5-FU-induced diarrhea mouse model for its protective effect on the cytotoxicity induced by the chemotherapy drug 5-FU. On day 0, BALB/c mice (20-25 g, 7-8 weeks of age) were randomly divided into 3 groups (vehicle, 5-FU, and compound treatment) with 10 mice in each group. In the vehicle group, the mice were administered orally with the same medium in the same amount as used in the treatment group for the compound and then injected with the same medium in the same amount as used in the 5-FU group. In the 5-FU group, the mice were administered orally with the same medium in the same amount as used in the treatment group for the compound and then injected with 5-FU (175 mg/kg). In the treatment group, the mice were administrated orally with the compound and then injected with 5-FU (175 mg/kg). The compound was formulated with a 0.5% CMC solution.
On day 7, the diarrhea grade of each mouse was determined according to the method described in Kurita et al., Cancer Chemother. Pharmacol. 2000, 46, 211-20, the disclosure of which is incorporated herein by reference in its entirety. Diarrhea remission rates were calculated using the formula of Diarrhea remission rate (%)=(diarrhea grade in 5-FU group—diarrhea grade in treatment group)/diarrhea grade in 5-FU group×100%.

[2] = system: MCF-7 human breast cancer cells; assay: CELLTITER-GLO luminescent cell viability assay; assay type: cell-based; settings: MCF7, 192 h, MCF-7 cells, 8 days, read-out: EC50 (Effect on Cell Viability)
Description: A CELLTITER-GLO luminescent cell viability assay was carried out using MCF-7 human breast cancer cells under the normal growth condition. The MCF-7 human breast cancer cells were grown at 37° C. in a 5% CO2 humidified incubator in EMEM, supplemented 10% FBS, 0.01 mg/mL bovine insulin. The cells were seeded at a 3,000 cells/well in a 96-well tissue culture plate. The cells were allowed to adhere overnight in the incubator. A compound (5 μL) in a medium at a predetermined concentration. After the cells was incubated at 37° C. for 8 days, a CELLTITER-GLO detection solution (100 μL) was added. The cells were mixed on an orbital shaker for 5 min and then incubated for additional 10 min. The plate was read with an ENVISION reader. The results are summarized in Table 2, where the symbol “+++” represents a value no greater than 1 μM, the symbol “++” represents a value greater than 1 μM but no greater than 10 μM, and the symbol “+” represents a value greater than 10 μM.

Sequence of CDK4/cyclin D1 (P11802 whole entry): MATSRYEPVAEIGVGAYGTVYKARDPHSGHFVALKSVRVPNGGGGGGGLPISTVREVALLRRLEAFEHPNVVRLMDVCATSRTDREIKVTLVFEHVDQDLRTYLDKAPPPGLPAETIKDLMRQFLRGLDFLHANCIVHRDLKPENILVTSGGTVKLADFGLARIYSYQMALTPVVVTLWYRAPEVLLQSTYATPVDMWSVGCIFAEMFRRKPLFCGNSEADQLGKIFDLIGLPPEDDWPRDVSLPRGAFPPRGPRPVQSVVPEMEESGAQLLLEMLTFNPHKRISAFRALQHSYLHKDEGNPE
Sequence of CDK4/cyclin D1 (P24385 whole entry partner): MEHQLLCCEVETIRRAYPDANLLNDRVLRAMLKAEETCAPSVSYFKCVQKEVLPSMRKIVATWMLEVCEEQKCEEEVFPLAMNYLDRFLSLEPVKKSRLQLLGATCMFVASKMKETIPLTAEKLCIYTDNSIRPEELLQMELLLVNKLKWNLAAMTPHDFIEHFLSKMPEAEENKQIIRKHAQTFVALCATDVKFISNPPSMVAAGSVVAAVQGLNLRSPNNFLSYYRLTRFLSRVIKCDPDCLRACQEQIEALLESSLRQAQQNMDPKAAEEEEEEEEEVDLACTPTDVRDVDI
Sequence of CDK6/cyclin D1 (Q00534 whole entry): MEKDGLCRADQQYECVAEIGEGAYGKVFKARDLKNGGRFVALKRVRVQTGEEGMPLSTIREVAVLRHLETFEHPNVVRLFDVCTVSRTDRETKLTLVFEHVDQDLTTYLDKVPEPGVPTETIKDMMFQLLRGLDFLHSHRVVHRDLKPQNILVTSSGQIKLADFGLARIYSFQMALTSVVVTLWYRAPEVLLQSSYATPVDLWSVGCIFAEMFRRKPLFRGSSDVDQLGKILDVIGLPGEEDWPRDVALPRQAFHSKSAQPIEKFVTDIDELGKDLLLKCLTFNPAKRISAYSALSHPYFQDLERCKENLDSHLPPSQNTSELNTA
Sequence of CDK6/cyclin D1 (P24385 whole entry partner): as the sequence (P24385 whole entry partner) above

Compound | IC50 (CDK4/cyclin D1) | IC50 (CDK6/cyclin D1) | EC50 [2] | other results
CC(=O)c1c(C)c2cnc(Nc3ccc(N4CCN(S(=O)(=O)NC(=O)[C@H](C)N)CC4)cn3)nc2n(C2CCCC2)c1=O [Compound A6, (S)—N-((4-(6-((6-acetyl-8-cyclopentyl-5-methyl-7-oxo-7,8-dihydropyrido[2,3-d]-pyrimidin-2-yl)amino)pyridin-3-yl)piperazin-1-yl)sulfonyl)-2-aminopropanamide] | ≤ 200 nM | ≤ 200 nM | ≤ 1000 nM | RPR (relative protection rate) ([1]; compound 0.01 μM, Irinotecan (20 μM)): 20%; RPR (relative protection rate) ([1]; compound 0.2 μM, Irinotecan (20 μM)): 36%; RPR (relative protection rate) ([1]; compound 2 μM, Irinotecan (20 μM)): 89%; RPR (relative protection rate) ([1]; compound 20 μM, Irinotecan (20 μM)): 73%; RPR (relative protection rate) ([1]; compound 50 μM, Irinotecan (20 μM)): 57%; Remission Rate (diarrhea remission rate) (BALB/c mice; 5 mg/kg oral): 20%; Remission Rate (diarrhea remission rate) (BALB/c mice; 50 mg/kg oral): 66%; Remission Rate (diarrhea remission rate) (BALB/c mice; 100 mg/kg oral): 33%
CC(=O)c1c(C)c2cnc(Nc3ccc(N4CCN(S(=O)(=O)NCC(=O)O)CC4)cn3)nc2n(C2CCCC2)c1=O [Compound A44, ((4-(6-((6-Acetyl-8-cyclopentyl-5-methyl-7-oxo-7,8-dihydropyrido[2,3-d]-pyrimidin-2-yl)amino)pyridin-3-yl)piperazin-1-yl)sulfonyl)glycine] | ≤ 200 nM | ≤ 200 nM | 1000 to 10000 nM | RPR (relative protection rate) ([1]; compound 5 μM, 5-Fu (10 μM)): 90%; RPR (relative protection rate) ([1]; compound 20 μM, 5-Fu (10 μM)): 65%
CC(=O)c1c(C)c2cnc(Nc3ccc(N4CCN(S(=O)(=O)NC(=O)C5CCCO5)CC4)cn3)nc2n(C2CCCC2)c1=O (stereo not drawn) [Compound A39, N-((4-(6-((6-Acetyl-8-cyclopentyl-5-methyl-7-oxo-7,8-dihydropyrido[2,3-d]-pyrimidin-2-yl)amino)pyridin-3-yl)piperazin-1-yl)sulfonyl)tetrahydrofuran-2-carboxamide] | ≤ 200 nM | 200 to 500 nM | 1000 to 10000 nM | RPR (relative protection rate) ([1]; compound 1 μM, Irinotecan (20 μM)): 79%; RPR (relative protection rate) ([1]; compound 10 μM, Irinotecan (20 μM)): 86%
CC(=O)c1c(C)c2cnc(Nc3ccc(N4CCN(S(=O)(=O)NC(=O)CN)CC4)cn3)nc2n(C2CCCC2)c1=O [Compound A29, N-((4-(6-((6-Acetyl-8-cyclopentyl-5-methyl-7-oxo-7,8-dihydropyrido[2,3-d]-pyrimidin-2-yl)amino)pyridin-3-yl)piperazin-1-yl)sulfonyl)-2-aminoacetamide] | ≤ 200 nM | ≤ 200 nM | ≤ 1000 nM | RPR (relative protection rate) ([1]; compound 1 μM, 5-Fu (10 μM)): 89%; RPR (relative protection rate) ([1]; compound 10 μM, 5-Fu (10 μM)): 78%
CCCC(=O)NS(=O)(=O)N1CCN(c2ccc(Nc3ncc4c(C)c(C(C)=O)c(=O)n(C5CCCC5)c4n3)nc2)CC1 [Compound A37, N-((4-(6-((6-Acetyl-8-cyclopentyl-5-methyl-7-oxo-7,8-dihydropyrido[2,3-d]-pyrimidin-2-yl)amino)pyridin-3-yl)piperazin-1-yl)sulfonyl)butyramide] | 200 to 500 nM | 200 to 500 nM | 1000 to 10000 nM | 
CC(=O)c1c(C)c2cnc(Nc3ccc(N4CCN(S(=O)(=O)NC(=O)C(C)C)CC4)cn3)nc2n(C2CCCC2)c1=O [Compound A36, N-((4-(6-((6-Acetyl-8-cyclopentyl-5-methyl-7-oxo-7,8-dihydropyrido[2,3-d]-pyrimidin-2-yl)amino)pyridin-3-yl)piperazin-1-yl)sulfonyl)isobutyramide] | ≤ 200 nM | 200 to 500 nM | 1000 to 10000 nM | 
CC(=O)NS(=O)(=O)N1CCN(c2ccc(Nc3ncc4c(C)c(C(C)=O)c(=O)n(C5CCCC5)c4n3)nc2)CC1 [Compound A34, N-((4-(6-((6-Acetyl-8-cyclopentyl-5-methyl-7-oxo-7,8-dihydropyrido[2,3-d]-pyrimidin-2-yl)amino)pyridin-3-yl)piperazin-1-yl)sulfonyl)acetamide] | ≤ 200 nM | ≤ 200 nM | > 10000 nM | 
CCNS(=O)(=O)N1CCN(c2ccc(Nc3ncc4c(C)c(C(C)=O)c(=O)n(C5CCCC5)c4n3)nc2)CC1 [Compound A47, 4-(6-((6-Acetyl-8-cyclopentyl-5-methyl-7-oxo-7,8-dihydropyrido[2,3-d]-pyrimidin-2-yl)amino)pyridin-3-yl)-N-ethylpiperazine-1-sulfonamide] | ≤ 200 nM | ≤ 200 nM | 1000 to 10000 nM | 
CC(=O)c1c(C)c2cnc(Nc3ccc(N4CCN(S(=O)(=O)NC(=O)OCCNC(=O)[C@@H](N)C(C)C)CC4)cn3)nc2n(C2CCCC2)c1=O [Compound A14, (S)-2-(2-Amino-3-methylbutanamido)ethyl ((4-(6-((6-acetyl-8-cyclopentyl-5-methyl-7-oxo-7,8-dihydropyrido[2,3-d]pyrimidin-2-yl)amino)pyridin-3-yl)piperazin-1-yl)sulfonyl)carbamate] | ≤ 200 nM | ≤ 200 nM | > 10000 nM | 
CC(=O)c1c(C)c2cnc(Nc3ccc(N4CCN(S(=O)(=O)NC(=O)OCCNC(=O)[C@H](N)C(C)C)C[C@@H]4C)cn3)nc2n(C2CCCC2)c1=O [Compound A55, 2-((R)-2-Amino-3-methylbutanamido)ethyl (((S)-4-(6-((6-acetyl-8-cyclopentyl-5-methyl-7-oxo-7,8-dihydropyrido[2,3-d]pyrimidin-2-yl)amino)pyridin-3-yl)-3-methylpiperazin-1-yl)sulfonyl)carbamate] | ≤ 200 nM | ≤ 200 nM | 1000 to 10000 nM | RPR (relative protection rate) ([1]; compound 0.1 μM, 5-Fu (10 μM)): 38%; RPR (relative protection rate) ([1]; compound 10 μM, 5-Fu (10 μM)): 88%
CCCNS(=O)(=O)N1CCN(c2ccc(Nc3ncc4c(C)c(C(C)=O)c(=O)n(C5CCCC5)c4n3)nc2)CC1 [Compound A49, 4-(6-((6-Acetyl-8-cyclopentyl-5-methyl-7-oxo-7,8-dihydropyrido[2,3-d]-pyrimidin-2-yl)amino)pyridin-3-yl)-N-propylpiperazine-1-sulfonamide] | 200 to 500 nM | 200 to 500 nM | > 10000 nM | 
CC(=O)c1c(C)c2cnc(Nc3ccc(N4CCN(S(=O)(=O)N5CC(CO)OC5=O)CC4)cn3)nc2n(C2CCCC2)c1=O (stereo not drawn) [Compound A12, 3-((4-(6-((6-Acetyl-8-cyclopentyl-5-methyl-7-oxo-7,8-dihydropyrido[2,3-d]-pyrimidin-2-yl)amino)pyridin-3-yl)piperazin-1-yl)sulfonyl)-5-(hydroxymethyl)oxazolidin-2-one] | ≤ 200 nM | ≤ 200 nM | 1000 to 10000 nM | Remission Rate (diarrhea remission rate) (BALB/c mice; 10 mg/kg oral): 50%; Remission Rate (diarrhea remission rate) (BALB/c mice; 25 mg/kg oral): 90%
